Results on one compound are retold here after patent US12193972B2, “Intraocular drug delivery systems and methods of use” (SpyGlass Pharma, Inc., priority 2022, dated 2025).

Series [1] in a line: daily release or elution of Bimatoprost in vitro versus time (FIG. 8). Type of series: physicochemical. Particulars: four-hundred-day study.
A short description of series [2]: Bimatoprost sampled in the aqueous humor of dogs over time (FIG. 9). The series is classed as in vivo. From the text:
In this example, there was a low dose group of dogs (Grp 1), a mid-dose group of dogs (Grp 2), a high dose group of dogs (Grp 3), and a placebo group of dogs (Grp 4).

For the compound `CCNC(=O)CCC/C=C\C[C@@H]1[C@@H](/C=C/[C@@H](O)CCc2ccccc2)[C@H](O)C[C@@H]1O` [Bimatoprost], the “release kinetics over the study” value in series [1] is listed as “essentially a zero-order and/or a steady state elution rate”. In addition, the average release rate result in series [1] (drug delivery component) is given as “less than 0.100 micrograms per day”. Besides, the “level of Bimatoprost in the aqueous humor, elution kinetics” value in series [2] (low dose (Grp 1), mid-dose (Grp 2) and high dose (Grp 3) groups, study period of about one hundred thirteen days) is recorded as “zero-order elution rate”. In addition, the “mean measurements of Bimatoprost in the aqueous humor, dose dependence” value in series [2] (low, mid and high dose groups) is listed as “increased with the higher doses”.
